Experimental data: PubChem BioAssay AID1963827 (Molecular Pharmacology Branch, DTP, NCI, 2024)

Test system: 994946-033-R-J1-PDC complex spheroid viability
Experiment: Anticancer human tumor 994946-033-R-J1-PDC patient-derived melanoma cell line growth inhibition [POLQ]
Settings: for IC50: curve of first compound; for viability, T/C: stronger effect = lower value
Method in brief: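 Patient-derived tumour cells were co-cultured with HUVEC and mesenchymal stem cells as multicellular spheroids at 37 °C. They were treated with POLQ inhibitors (novobiocin, ART-558, RP6685) alone or combined with other agents. Top concentrations were at or near clinical Cmax (otherwise 10 microM; SN-38 at 1 microM), decreasing in half-log steps.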

[1] = second compound 0.0316 µM, first compound 0.0316 µM
[2] = second compound 0.0316 µM, first compound 0.1 µM
[3] = second compound 0.0316 µM, first compound 0.316 µM
[4] = second compound 0.0316 µM, first compound 1 µM
[5] = second compound 0.0316 µM, first compound 3.16 µM
[6] = second compound 0.0316 µM, first compound 10 µM
[7] = second compound 0.1 µM, first compound 0.0316 µM
[8] = second compound 0.1 µM, first compound 0.1 µM
[9] = second compound 0.1 µM, first compound 0.316 µM
[10] = second compound 0.1 µM, first compound 1 µM
[11] = second compound 0.1 µM, first compound 3.16 µM
[12] = second compound 0.1 µM, first compound 10 µM
[13] = second compound 0.316 µM, first compound 0.0316 µM
[14] = second compound 0.316 µM, first compound 0.1 µM
[15] = second compound 0.316 µM, first compound 0.316 µM
[16] = second compound 0.316 µM, first compound 1 µM
[17] = second compound 0.316 µM, first compound 3.16 µM
[18] = second compound 0.316 µM, first compound 10 µM
[19] = second compound 1 µM, first compound 0.0316 µM
[20] = second compound 1 µM, first compound 0.1 µM
[21] = second compound 1 µM, first compound 0.316 µM
[22] = second compound 1 µM, first compound 1 µM
[23] = second compound 1 µM, first compound 3.16 µM
[24] = second compound 1 µM, first compound 10 µM
[25] = second compound 3.16 µM, first compound 0.0316 µM
[26] = second compound 3.16 µM, first compound 0.1 µM
[27] = second compound 3.16 µM, first compound 0.316 µM
[28] = second compound 3.16 µM, first compound 1 µM
[29] = second compound 3.16 µM, first compound 3.16 µM
[30] = second compound 3.16 µM, first compound 10 µM
[31] = second compound 10 µM, first compound 0.0316 µM
[32] = second compound 10 µM, first compound 0.1 µM
[33] = second compound 10 µM, first compound 0.316 µM
[34] = second compound 10 µM, first compound 1 µM
[35] = second compound 10 µM, first compound 3.16 µM
[36] = second compound 10 µM, first compound 10 µM
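Note: spheroids exposed to drugs for 7 days.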
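Throughout, for viability, T/C: 100% = DMSO vehicle treated spheroids.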

In the case of `CC(C)n1c(=O)n(C)c2cnc3cc(F)c(-c4ccc(OCCCN5CCCCC5)nc4)cc3c21` + COC1C(OC(N)=O)C(O)C(Oc2ccc3c(O)c(NC(=O)c4ccc(O)c(CC=C(C)C)c4)c(=O)oc3c2C)OC1(C)C, the IC50 (second compound 0.0316 µM) is reported as 4.59 µM, the IC50 (second compound 0.1 µM) is reported as 5.03 µM and the IC50 (second compound 0.316 µM) is reported as 8.57 µM. The IC50 (second compound 1 µM) was 5.25 µM, the IC50 (second compound 3.16 µM) was greater than 10 µM and the IC50 (second compound 10 µM) was 6.35 µM. It also gave a viability, T/C [1] of 81.5%, a viability, T/C [2] of 65.5% and a viability, T/C [3] of 81.1%. The viability, T/C [4] was 59.1%, the viability, T/C [5] was 60% and the viability, T/C [6] was 36.8%. For the same compound, the viability, T/C [7] was 73.7%, the viability, T/C [8] was 100% and the viability, T/C [9] was 78.3%. For the same compound, the viability, T/C [10] was 69.8%, the viability, T/C [11] was 65.2% and the viability, T/C [12] was 31.6%. It also gave a viability, T/C [13] of 74.5%, a viability, T/C [14] of 76.7% and a viability, T/C [15] of 68.2%. For the same compound, the viability, T/C [16] was 68.3%, the viability, T/C [17] was 79.8% and the viability, T/C [18] was 46.5%. The viability, T/C [19] was 86.7%, the viability, T/C [20] was 86.5% and the viability, T/C [21] was 87%. The viability, T/C [22] was 102%, the viability, T/C [23] was 64.5% and the viability, T/C [24] was 31.6%. The viability, T/C [25] was 81.8%, the viability, T/C [26] was 68.5% and the viability, T/C [27] was 92.9%. It also gave a viability, T/C [28] of 93.8%, a viability, T/C [29] of 66.1% and a viability, T/C [30] of 50.6%. For the same compound, the viability, T/C [31] was 76.1%, the viability, T/C [32] was 65.9% and the viability, T/C [33] was 66.1%. It also gave a viability, T/C [34] of 82%, a viability, T/C [35] of 62.1% and a viability, T/C [36] of 40.1%.
In the case of `CC1COCCN1c1cc(-c2ccnn2C)c2ccnc(-c3ccn[nH]3)c2n1` (stereo unspecified) + COC1C(OC(N)=O)C(O)C(Oc2ccc3c(O)c(NC(=O)c4ccc(O)c(CC=C(C)C)c4)c(=O)oc3c2C)OC1(C)C, the IC50 (second compound 0.0316 µM) is reported as 0.0482 µM, the IC50 (second compound 0.1 µM) is reported as 0.0792 µM and the IC50 (second compound 0.316 µM) is reported as 0.151 µM. For the same compound, the IC50 (second compound 1 µM) was 0.077 µM, the IC50 (second compound 3.16 µM) was 0.057 µM and the IC50 (second compound 10 µM) was 0.0584 µM. It also gave a viability, T/C [1] of 58.2%, a viability, T/C [2] of 33.9% and a viability, T/C [3] of 31.6%. The viability, T/C [4] was 18.4%, the viability, T/C [5] was 20.4% and the viability, T/C [6] was 11.8%. The viability, T/C [7] was 107%, the viability, T/C [8] was 35.2% and the viability, T/C [9] was 21.5%. For the same compound, the viability, T/C [10] was 30.3%, the viability, T/C [11] was 16.8% and the viability, T/C [12] was 12.3%. It also gave a viability, T/C [13] of 72.3%, a viability, T/C [14] of 60.4% and a viability, T/C [15] of 31.5%. For the same compound, the viability, T/C [16] was 22%, the viability, T/C [17] was 24.5% and the viability, T/C [18] was 13.6%. For the same compound, the viability, T/C [19] was 100%, the viability, T/C [20] was 34.5% and the viability, T/C [21] was 23.9%. The viability, T/C [22] was 23.2%, the viability, T/C [23] was 20.8% and the viability, T/C [24] was 12.6%. The viability, T/C [25] was 76.4%, the viability, T/C [26] was 24.7% and the viability, T/C [27] was 18.2%. For the same compound, the viability, T/C [28] was 13.4%, the viability, T/C [29] was 14.9% and the viability, T/C [30] was 13.5%. For the same compound, the viability, T/C [31] was 69.2%, the viability, T/C [32] was 32% and the viability, T/C [33] was 21.2%. For the same compound, the viability, T/C [34] was 32%, the viability, T/C [35] was 18.5% and the viability, T/C [36] was 10.3%.
In the case of `CC1COCCN1c1cc(C2(S(C)(=N)=O)CC2)nc(-c2ccnc3[nH]ccc23)n1` (stereo unspecified) + COC1C(OC(N)=O)C(O)C(Oc2ccc3c(O)c(NC(=O)c4ccc(O)c(CC=C(C)C)c4)c(=O)oc3c2C)OC1(C)C, the IC50 (second compound 0.0316 µM) is reported as 4.13 µM, the IC50 (second compound 0.1 µM) is reported as 1.39 µM and the IC50 (second compound 0.316 µM) is reported as 4.03 µM. The IC50 (second compound 1 µM) was 8.12 µM, the IC50 (second compound 3.16 µM) was greater than 10 µM and the IC50 (second compound 10 µM) was 3.19 µM. It also gave a viability, T/C [1] of 134%, a viability, T/C [2] of 95.5% and a viability, T/C [3] of 99.4%. For the same compound, the viability, T/C [4] was 45.6%, the viability, T/C [5] was 61.9% and the viability, T/C [6] was 41.1%. The viability, T/C [7] was 113%, the viability, T/C [8] was 101% and the viability, T/C [9] was 68.2%. The viability, T/C [10] was 65.3%, the viability, T/C [11] was 29.2% and the viability, T/C [12] was 36.1%. For the same compound, the viability, T/C [13] was 78.1%, the viability, T/C [14] was 116% and the viability, T/C [15] was 92.4%. The viability, T/C [16] was 63.9%, the viability, T/C [17] was 61.5% and the viability, T/C [18] was 34.1%. For the same compound, the viability, T/C [19] was 138%, the viability, T/C [20] was 105% and the viability, T/C [21] was 80.8%. The viability, T/C [22] was 68.9%, the viability, T/C [23] was 52.9% and the viability, T/C [24] was 49.6%. For the same compound, the viability, T/C [25] was 101%, the viability, T/C [26] was 90.5% and the viability, T/C [27] was 80.5%. The viability, T/C [28] was 75%, the viability, T/C [29] was 54.6% and the viability, T/C [30] was 57.9%. The viability, T/C [31] was 103%, the viability, T/C [32] was 85.4% and the viability, T/C [33] was 99%. The viability, T/C [34] was 102%, the viability, T/C [35] was 50% and the viability, T/C [36] was 37%.
